These are literature values, as cited in US8273874B2, “Method of dynamic nuclear polarisation (DNP) and compounds and compositions for use in the method” (GE Healthcare AS, priority 2006, dated 2012).

The conditions of the data set: human full blood at 37° C.

For the compound `CC(=O)[13C](=O)O` [^13C1-pyruvate], the T1 relaxation result was “about 42 s”.
